From US8703750B2, “Mixtures and methods for the induction of resistance in plants” (priority 2004, dated 2014)
Where two headings read alike, the source gives them in different places.

How the values were obtained:
[1] = test system: cultivar Borlotto of Vigevano bean plants; format: in vivo, bean plant; parameters: key: 100 = healthy plant, 0 = completely necrotic/decoloured
Protocol: After 7 days in a conditioned environment, the intensity of the necrosis or leaf decolouring is evaluated with an evaluation scale from 100 (healthy plant) to 0 (plant completely infected with necrosis or decoloured).

Plasmopara viticola = conditions: in vivo
Protocol: After remaining 7 days in a conditioned environment, the plants were infected on the lower side with an aqueous suspension of Plasmorpara viticola spores (200,000 spores per cm^3).
(§1) The plants were kept in a humidity saturated environment, at 21° C., for the incubation period of the fungus and, at the end of this period (7 days), the fungicidal activity is evaluated according to an evaluation percentage scale from 100 (healthy plant) to 0 (completely infected plant).
E is the expected fungicidal activity, in the absence of synergetic effects, from a blend obtained by mixing g.x of the compound X with g.y of the compound Y;
x is the activity of compound X when used alone at a dose of g.x;
y is the activity of compound Y when used alone at a dose of g.y.
When the fungicidal activity found experimentally is greater than the value of E, said activity should be considered as being a synergetic effect.

Peronospora tabacina = experiment: Control of Peronospora Tabacina on tobacco in preventive leaf application (greenhouse test); format: in vivo
Protocol: After remaining 7 days in a conditioned environment, the plants were infected on the lower side with an aqueous suspension of Peronospora Tabacina spores (200,000 spores per cm^3).
as §1, with “After remaining 24 hours” for “The plants were kept”, “C., the plants were transferred to another conditioned environment” for “C.,”

cultivar Merlot vines = experiment: Undesired effects (necrosis or leaf decolouring) on vines in the Plasmopara viticola greenhouse test; conditions: in vivo
Protocol: Leaves of cultivar Merlot vines, grown in vases, in a conditioned environment (20±1° C., 70% relative humidity), were treated by spraying both sides of the leaves with the blends in question dispersed in an aqueous solution containing 0.3% of tween 20.

[2] = test system: cultivar Burley tobacco plants; conditions: in vivo
Protocol: Leaves of cultivar Burley tobacco plants, grown in vases, in a conditioned environment (20±1° C., 70% relative humidity), were treated by spraying both sides of the leaves with the blends in question dispersed in an aqueous solution containing 0.3% of tween 20.
Undesired effects refer to the appearance of necrosis or leaf decolouring.

[3] = 125 ppm of each component, 7 days after leaf spraying, bean plant

CC(N)CC(=O)O (stereo not drawn) [BABA, β-aminobutyric acid, reference compound]
Leaf decolouring [1, 3]: 15
Leaf necrosis [1, 3]: 30

[Cu+2].[OH-].[OH-] [Cu hydroxide, cuprum hydroxyde]
Activity (y) (Plasmopara viticola): 34

[Cl-].[Cu+2].[Cu+2].[OH-].[OH-].[OH-] [Cu oxychloride, cuprum oxychloride]
Activity (y) (Plasmopara viticola): 18

O=S(=O)([O-])[O-].[Cu+2] [CuSO4, copper sulphate]
Activity (y) (Plasmopara viticola): 48
Activity (y) (Peronospora tabacina; in vivo): 45

O=C(O)c1ccccc1[O-].O=C(O)c1ccccc1[O-].[Cu+2] [Cu^2+ SA, copper (II) salt of salicylic acid]
Leaf decolouring ([1]; in vivo): 5
Leaf necrosis ([1]; in vivo): 55

O=C(O)c1ccccc1[O-].O=C(O)c1ccccc1[O-].[Cu+2] [Cu^2+SA2, copper (II) salt of salicylic acid]
Leaf decolouring ([1]; in vivo): 5
Leaf necrosis ([1]; in vivo): 42

O=c1ccc2ccccc2o1 [Cumarine]
Activity (y) (Plasmopara viticola): 10

O=c1ccc2cc(O[C@@H]3O[C@H](CO)[C@@H](O)[C@H](O)[C@H]3O)c(O)cc2o1 [Esculine, esculin]
Activity (y) (Plasmopara viticola): 10

O=C([O-])[C@H](O)[C@@H](O)[C@H](O)[C@H](O)CO.O=C([O-])[C@H](O)[C@@H](O)[C@H](O)[C@H](O)CO.[Fe+2] [Fe (II) gluconate]
Activity (y) (Plasmopara viticola): 28

[Fe+2].c1ccc2c(c1)-c1nc-2nc2[n-]c(nc3nc(nc4[n-]c(n1)c1ccccc41)-c1ccccc1-3)c1ccccc21 [Fe (II) phthalocyanine, iron phthalocyanine]
Activity (y) (Plasmopara viticola): 14

O=S(=O)([O-])[O-].[Fe+2] [FeSO4, iron sulphate]
Activity (y) (Plasmopara viticola): 40
Activity (y) (Peronospora tabacina; in vivo): 15

O=C(O)c1cc(Cl)nc(Cl)c1 [INA, 2,6-dichloroisonicotinic acid, reference compound]
Leaf decolouring [1, 3]: 10
Leaf necrosis [1, 3]: 50

[C-]#N.[C-]#N.[C-]#N.[C-]#N.[C-]#N.[C-]#N.[C-]#N.[C-]#N.[C-]#N.[C-]#N.[C-]#N.[C-]#N.[C-]#N.[C-]#N.[C-]#N.[C-]#N.[C-]#N.[C-]#N.[Fe+2].[Fe+2].[Fe+2].[Fe+3].[Fe+3].[Fe+3].[Fe+3] [Prussian blue]
Activity (y) (Plasmopara viticola): 13

O=C1NS(=O)(=O)c2ccccc21 [Saccharin, saccharin]
Activity (y) (Plasmopara viticola): 30

[Cl-].[Cl-].[Cu+2].[Cu+2].[Cu+2].[Cu+2].[OH-].[OH-].[OH-].[OH-].[OH-].[OH-] [Tetracopper oxychloride]
Activity (y) (Plasmopara viticola): 28

[O]=[Zn] [ZnO, zinc oxide]
Activity (y) (Plasmopara viticola): 30
Activity (y) (Peronospora tabacina; in vivo): 15

O=S(=O)([O-])[O-].[Zn+2] [ZnSO4, zinc sulphate]
Activity (y) (Plasmopara viticola): 22
Activity (y) (Peronospora tabacina; in vivo): 20

Fe(III) glutamate
Activity (y) (Plasmopara viticola): 16

FeNH4SO4
Activity (y) (Plasmopara viticola): 18

copper phthalocyanine [Cu (II) Phthalocyanine]
Activity (y) (Plasmopara viticola): 10
Undesired effects (cultivar Merlot vines): 0

silicic acid
Activity (y) (Plasmopara viticola): 14

titanium dioxide [TiO2]
Activity (y) (Plasmopara viticola): 24
Undesired effects [2]: 0
Activity (y) (Peronospora tabacina; Table 5, compound alone at dose g.y ppm Equivalent Metal: TiO2 24, FeSO4 28, ZnSO4 33, CuSO4 32, ZnO 33): 5
